The source of these data is patent US9777037B2, “Neurosteroid compounds” (BIONATURE E. A. LTD., priority 2007, dated 2017).

In assay [1] the test system is Neural-crest derived PC12 cells. Put plainly: APOPercentage apoptosis assay, serum-deprivation induced apoptosis of PC12 cells. The note with it: Rattus norvegicus, PC-12, absence of serum 12 hours, ApoPercentage assay (FIG. 2), read-out: IC50 of anti-apoptotic, cytoprotective effect. Type of assay: cell-based, rat. On the procedure: Neural-crest derived PC12 cells were maintained in culture at 5% CO2, at 37° C., in RPMI 1640 medium containing 2 mM L-glutamine, 15 mM HEPES, 100 units/ml penicillin, 0.1 mg/ml streptomycin, 10% horse serum, and 5% foetal calf serum. Serum free medium was supplemented with 1% bovine serum albumin (BSA). Different steroids, used at various concentrations, were initially diluted in ethanol. The final concentration of ethanol in each well, including controls was 0.01%. Conjugate DHEA-BSA was initially diluted in Phosphate Buffer Saline (PBS).
Cells were cultured in the absence of serum for 12 hours, supplemented with DHEA and various synthetic spiro neurosteroids at 10 nM. Cell apoptosis was quantitated with two different methods: The APOPercentage Apoptosis Assay (Biocolor Ltd., Belfast, N. Ireland) was used to quantify apoptosis, according to the manufacturer's instructions. Apoptosis was quantified following cell lysis by measuring the dye incorporated in apoptotic cells at 550 nm (reference filter 620 nm) using a colour filter microplate colorimeter (Dynatech MicroElisa reader, Chantilly, Va.) (see FIGS. 1 and 2). FACS Analysis: FACS analysis of apoptotic cells was performed according to our protocol (Proc Natl Acad Sci USA 101,8209 (2004)). Flow cytometry was performed with FACScan (Becton Dickinson, Heidelberg, Germany) and the results were analysed with the FACScan and Cell Quest softwares (see FIG. 3).

The subject of another assay is Ishikawa cells. The assay is described as follows: Alkaline phosphatase activity of Ishikawa cells, estrogen agonism/antagonism. In kind it is cell-based, human. The source says:
Treatment of postmenopausal syndromes with 17β-estradiol (E2) is associated with a higher risk of developing breast and/or endometrial cancer (Arch Intern Med. 166, 1027 (2006)). E2 stimulation of the proliferation of cancer cells is driven by estrogen receptor alpha (ERα) (Mol. Endocrinol. 13, 969 (1999)). Since BNN-50, BNN-93 and BNN-124 may form two hydrogen bonds with an O—O distance of 10.9-12.5 Å and thus may fit the ERα binding cavity (Chem. Biol. 11, 397 (2004)), it was imperative to examine the estrogen agonism/antagonism properties of these neurosteroids using human adenocarcinoma cells from breast (MCF-7 cells) and uterus (Ishikawa cells) as reporters. Full estrogen agonism (E2 at ≧0.1 nM) and non-agonism (vehicle only) controls served to classify the neurosteroids as super, full, partial, weak and marginal agonists depending on whether their estrogenic efficacy was >100, 76-100, 26-75, 10-25 and 1-10% of that of E2 (set equal to 100). Similarly, full antagonism of the effect of E2 (at 0.1 nM) by ICI 182, 780 (at ≧10 nM) and non-antagonism (vehicle only) controls served to classify the neurosteroids as full, partial, weak and marginal antagonists depending on whether their suppression of the effect of E2 was 76-100, 26-75, 10-25 and 1-10% of that of ICI 182, 780. Differences between control and neurosteroid-treated cells were assessed using one-way ANOVA. […]

Assay [2] deals with tyrosine hydroxylase mRNA. Put plainly: Tyrosine hydroxylase (TH) RT-PCR in dopaminergic PC12 cells. The note with it: dopaminergic PC12 cells (FIG. 6C). In kind it is cell-based, rat. As for the experimental part: Tyrosine Hydroxylase (TH) RT-PCR: Total RNA was extracted from dopaminergic PC12 cells using the Trizol Reagent (Invitrogen Life technologies, CA). One microgram of total RNA was reverse transcribed by the Thermo-Script RT-PCR System (Invitrogen) using random hexamers in a total volume of 20 μl. Two microliters of the RT product was used as a template, amplified by PCR using 2 mM MgCl2, one strength PCR buffer, 0.2 mM of sense and antisense primers, 0.2 mM dNTPs and 2.5 U AmpliTaq Gold DNA polymerase (Perkin Elmer ABD, Foster City, Calif.) in a final reaction volume of 50 μl. PCR was performed in a Perkin Elmer DNA Thermal Cycler. Primers for TH were 5′-[…]-3′ (sense), and 5-[…]-3 (antisense) and for G3PDH were, 5′-[…]-3′ (sense), and 5′-[…]-3′ (antisense). Oligonucleotides were synthesized by MWG-Biotech AG (Munich, Germany). After reverse transcription, the cDNA product was amplified by PCR, at 33 cycles. The cycle number (33) was chosen such that amplification of the products was in the linear range with respect to the amount of input cDNA. PCR for G3PDH was performed in parallel to assure good quality of RNA and cDNA preparations. Each cycle consisted of 60 s at 92° C. for denaturation, 120 s at 53° C. for annealing, and 180 s at 72° C. for extension (60 s at 98° C., 90 s at 55° C., and 150 s at 72° C. for G3PDH respectively). 10 μl of the amplified products (368 bp for TH and 983 bp for G3PDH) were separated on a 2% agarose gel and visualized by ethidium bromide staining.

The test system of assay [3] is Dopaminergic neural-crest derived PC12 cells. Put plainly: Dopamine secretion from dopaminergic PC12 cells (radioimmunoassay). Type of assay: cell-based, rat. As to conditions: 10^-7 M. On the procedure:
Dopaminergic neural-crest derived PC12 cells were grown in 6-well plates, coated with poly-L-lysine, at a concentration of 10^6 cells/well. Cells were incubated with neurosteroids or the vehicle for several time periods; for the short-term experiments the incubation time ranged from 5 to 30 minutes and for the long-term from 3 to 48 hours. 1 mL of supernatants were transferred to tubes containing 200 μl 0.1 M HCl for measurement of dopamine, which was measured by radioimmunoassay (TriCat™ RIA, RE29395, IBL Immuno Biological Lab., Hamburg, Germany) using ^125I as a tracer. The analytical sensitivity of the method was 30 pg/ml, its intra-assay CV was 9.5%, and its inter-assay CV was 16.7%. The cross reactivity between dopamine and norepinephrine was <0.013%

Consider `C[C@]12CC[C@H](O)CC1=CCC1C2CC[C@@]2(C)C1CC[C@@]21CO1` (stereo partly drawn) [BNN-50, 17β-spiro-[5-androsten-17,2′-oxiran]-3β-ol], for which the IC50 (commonly the concentration needed to halve the response being measured) in assay [1] is 0.088 nM. In addition, in the assay on Ishikawa cells, the “E2 agonism (at 1 uM), Ishikawa AlkP” value is given as “non-significant”. The “E2 antagonism (at 1 uM), Ishikawa AlkP” value with Ishikawa cells (against E2 at 0.1 nM) is reported as “marginal (1-10% of that of ICI 182, 780)”. Besides, the “induction of tyrosine hydroxylase mRNA” value in assay [2] was “strong induction”. In assay [3] (3 to 48 hours (FIG. 6B)), the “dopamine levels in culture media, long-term” value is on record as “increase of dopamine levels peaking at 24 h”. The “stimulation of dopamine secretion, short-term” value in assay [3] (5 to 30 min, effect within 10 min (FIG. 6A)) is “doubling their levels”.
